Data published in paper PMC6274455, “Isolation of α-Amylase Inhibitors from Kadsura longipedunculata Using a High-Speed Counter-Current Chromatography Target Guided by Centrifugal Ultrafiltration with LC-MS” (Molecules, 2016).
Like-named read-outs stand apart in the source and are kept apart here.

Target: T1, α-amylase (Sus scrofa, UniProt P00690)
T1 construct: gene AMY2
T1 sequence (P00690 16-511): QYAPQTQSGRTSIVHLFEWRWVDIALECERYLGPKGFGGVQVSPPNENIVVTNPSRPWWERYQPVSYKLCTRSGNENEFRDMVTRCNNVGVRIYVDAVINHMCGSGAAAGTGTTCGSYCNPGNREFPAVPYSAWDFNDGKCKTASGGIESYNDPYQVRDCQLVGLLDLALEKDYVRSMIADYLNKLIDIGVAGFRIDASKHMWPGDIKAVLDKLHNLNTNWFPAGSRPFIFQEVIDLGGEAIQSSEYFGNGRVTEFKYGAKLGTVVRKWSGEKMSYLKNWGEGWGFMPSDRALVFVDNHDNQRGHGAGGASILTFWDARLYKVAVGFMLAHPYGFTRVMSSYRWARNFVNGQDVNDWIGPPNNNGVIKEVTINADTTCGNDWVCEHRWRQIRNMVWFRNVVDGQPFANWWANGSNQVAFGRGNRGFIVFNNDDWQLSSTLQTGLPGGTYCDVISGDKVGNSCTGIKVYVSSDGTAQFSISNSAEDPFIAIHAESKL
Assay: α-amylase inhibition assay of isolated compound; also captured by centrifugal ultrafiltration LC-MS with active but not denatured enzyme
Format: biochemical

| SMILES | IC50 | IC50 (read-out: IC50) |
| --- | --- | --- |
| C[C@@H]1O[C@@H](Oc2c(-c3ccc(O)c(O)c3)oc3cc(O)cc(O)c3c2=O)[C@H](O)[C@H](O)[C@H]1O [compound 1, quercetin-3-O-rhamnoside] | 28.8 µM | – |
| O=C(O)c1ccc(O)c(O)c1 [compound 2, protocatechuic acid] | – | 12.5 µM |
